Measured values published in patent US7691969B2, “Isolated GRP94 ligand binding domain polypeptide and nucleic acid encoding same, crystalline form of same, and screening methods employing same” (Duke University, priority 2001, dated 2010).

Assays:
[1] = target: T1, GRP94 (Sus scrofa, UniProt Q29092); experiment: Fluorophore binding to native and heat shocked GRP94 (fluorescence emission); set-up: species or system porcine; conditions: for fluorophore binding to native versus heat shocked GRP94 (fluorescence emission): 0.5 μM GRP94, 5 μM probe, 37° C.
T1 construct: GRP94 was purified from porcine pancreas rough microsomes; from tissue; host or cells: porcine pancreas rough microsomes (lumenal contents)
T1 sequence (Q29092 22-804): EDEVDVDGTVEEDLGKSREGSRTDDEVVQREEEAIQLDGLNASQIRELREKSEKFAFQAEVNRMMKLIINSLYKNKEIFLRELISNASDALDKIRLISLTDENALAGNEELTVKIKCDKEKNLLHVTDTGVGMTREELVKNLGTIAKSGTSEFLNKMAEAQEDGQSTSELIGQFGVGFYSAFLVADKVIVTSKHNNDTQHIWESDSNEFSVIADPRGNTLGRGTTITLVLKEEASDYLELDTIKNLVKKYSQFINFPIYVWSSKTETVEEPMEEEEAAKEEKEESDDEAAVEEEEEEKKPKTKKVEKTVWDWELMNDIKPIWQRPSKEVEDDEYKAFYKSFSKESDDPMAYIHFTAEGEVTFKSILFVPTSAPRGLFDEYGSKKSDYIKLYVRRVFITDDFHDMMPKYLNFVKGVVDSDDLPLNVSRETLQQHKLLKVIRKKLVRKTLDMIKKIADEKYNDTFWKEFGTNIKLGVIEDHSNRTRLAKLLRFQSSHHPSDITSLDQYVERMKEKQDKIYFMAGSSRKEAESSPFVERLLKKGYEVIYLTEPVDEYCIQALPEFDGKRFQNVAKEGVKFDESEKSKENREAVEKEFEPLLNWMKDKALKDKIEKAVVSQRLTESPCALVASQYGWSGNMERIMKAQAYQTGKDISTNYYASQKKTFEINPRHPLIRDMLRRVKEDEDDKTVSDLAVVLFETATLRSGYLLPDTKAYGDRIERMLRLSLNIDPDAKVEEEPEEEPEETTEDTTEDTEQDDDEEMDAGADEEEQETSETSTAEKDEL
Description: Fluorophore Binding Reactions.
Fluorescence Measurements. […] All spectra were background corrected.
To characterize the structural basis for the heat shock dependent activation of GRP94 activity, the interaction of polarity-sensitive fluorophores with native and heat shocked GRP94 was examined. The three probes tested, Prodan (6-propionyl-2-(dimethylamino)naphthalene), 8-ANS (1,8-anilinonaphthalenesulfonate) and bis-ANS (bis(1,8-anilino-naphthalenesulfonate) are structurally related probes that bind to hydrophobic sites on proteins and undergo substantial fluorescence spectrum changes upon introduction into nonpolar environments, as discussed by Rosen & Weber (1969) Biochemistry 8:3915-3920; Weber & Farris (1979) Biochemistry 18:3075-3078; Takashi et al. (1977) Proc Natl Acad Sci USA 74:2334-2338; Shi et al. (1994) Biochemistry 33:7536-7546. The following experimental protocol was utilized. GRP94 was warmed to 37° C. and either maintained at 37° C. or heat shocked for 15 minutes at 50° C., followed by incubation at 37° C. Subsequently, probe stocks were added to the GRP94 stocks and emission spectra recorded after 30 min at 37° C.
Under the experimental conditions used in this series of experiments, bis-ANS binding to GRP94 was near maximal at a 20-fold molar excess of GRP94 monomer over bis-ANS, with half maximal binding observed at 110 nM GRP94 (FIG. 2B).

[2] = target: T1, GRP94; experiment: Tryptophan fluorescence (tertiary conformational state); format: biochemical, porcine; conditions: 50 μM NECA, 50 μM geldanamycin, 2.5 mM ATP or 2.5 mM ADP; 1 h 37° C.
Method: Tryptophan Fluorescence. Tryptophan fluorescence measurements were conducted in a FLUOROMAX™ spectrofluorometer (Spex Industries, Inc. of Edison, N.J.) with the slit widths set to 1 nm for both excitation and emission. […] All spectra were corrected by subtraction of buffer or buffer plus ligand samples. GRP94 (50 μg/ml) was incubated in buffer A supplemented with 10 mM Mg(OAc)2 and the following concentrations of ligands for 1 hour at 37° C. […] Samples were then cooled to room temperature, transferred to a quartz cuvette, and the spectra collected.

[3] = target: HSP90 (Saccharomyces cerevisiae, UniProt P02829); conditions: cited from earlier work
Sequence of HSP90 (P02829 whole entry): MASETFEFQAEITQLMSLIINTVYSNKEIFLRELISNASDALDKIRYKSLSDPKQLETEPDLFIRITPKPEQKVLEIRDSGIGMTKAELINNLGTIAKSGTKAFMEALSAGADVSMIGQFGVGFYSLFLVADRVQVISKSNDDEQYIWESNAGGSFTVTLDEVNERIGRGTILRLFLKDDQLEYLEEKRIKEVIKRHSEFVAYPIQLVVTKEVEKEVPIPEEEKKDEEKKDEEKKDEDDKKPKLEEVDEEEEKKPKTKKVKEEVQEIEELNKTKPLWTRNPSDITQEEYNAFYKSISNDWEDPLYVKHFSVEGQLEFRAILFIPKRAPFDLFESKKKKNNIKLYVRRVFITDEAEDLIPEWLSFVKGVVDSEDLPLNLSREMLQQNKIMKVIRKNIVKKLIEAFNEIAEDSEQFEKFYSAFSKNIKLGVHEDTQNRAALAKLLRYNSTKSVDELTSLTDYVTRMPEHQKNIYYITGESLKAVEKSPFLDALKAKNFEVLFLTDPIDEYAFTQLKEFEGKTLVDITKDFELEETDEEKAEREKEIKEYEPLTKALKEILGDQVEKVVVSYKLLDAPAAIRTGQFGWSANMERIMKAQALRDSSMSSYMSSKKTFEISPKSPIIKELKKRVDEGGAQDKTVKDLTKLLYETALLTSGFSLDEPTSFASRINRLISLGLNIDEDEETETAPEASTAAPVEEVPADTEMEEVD

[4] = target: T1, GRP94; experiment: [3H]-NECA competitive displacement assay; format: binding, porcine; conditions: for effect of excess Mg2+ on binding to GRP94: 10 mM Mg(OAc)2 versus nominal magnesium; for nucleoside base specificity: binding to GRP94 by [3H]-NECA displacement: competitors at 50 μM
Method: Where indicated, binding reactions were performed in either buffer C (10 mM Tris, pH 7.5, 50 mM KCl, 5 mM MgCl2, 2 mM DTT, 0.01% NP-40, 20 mM Na2MoO4) or 50 mM Tris, pH 7.5, 10 mM Mg(OAc)2. […] Vacuum filtration was performed with an Amersham Pharmacia Biotech (Piscataway, N.J.) vacuum filtration manifold.
All binding reactions were performed in triplicate and corrected by subtraction of background values, determined in binding reactions lacking GRP94.

[5] = target: casein kinase II (Homo sapiens, UniProt P68400); experiment: Casein kinase assay; format: biochemical; conditions: 180 μM NECA or radicicol in 3.6% DMSO, 5 μg/ml heparin, 5 mM GTP; 4 μM casein
Sequence of casein kinase II (P68400 whole entry): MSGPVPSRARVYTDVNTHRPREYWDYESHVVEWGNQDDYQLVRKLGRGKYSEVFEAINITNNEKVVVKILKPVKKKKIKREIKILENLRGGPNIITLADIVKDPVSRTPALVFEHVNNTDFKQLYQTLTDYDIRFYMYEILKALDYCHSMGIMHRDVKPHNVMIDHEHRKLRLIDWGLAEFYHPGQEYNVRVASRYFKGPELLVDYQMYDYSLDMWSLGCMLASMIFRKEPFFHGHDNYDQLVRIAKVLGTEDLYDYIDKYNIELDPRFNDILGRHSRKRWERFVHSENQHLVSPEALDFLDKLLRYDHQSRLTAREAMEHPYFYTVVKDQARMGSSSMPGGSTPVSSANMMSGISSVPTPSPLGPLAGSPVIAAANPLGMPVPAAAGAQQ
Sequence of casein kinase II (P67870 whole entry partner): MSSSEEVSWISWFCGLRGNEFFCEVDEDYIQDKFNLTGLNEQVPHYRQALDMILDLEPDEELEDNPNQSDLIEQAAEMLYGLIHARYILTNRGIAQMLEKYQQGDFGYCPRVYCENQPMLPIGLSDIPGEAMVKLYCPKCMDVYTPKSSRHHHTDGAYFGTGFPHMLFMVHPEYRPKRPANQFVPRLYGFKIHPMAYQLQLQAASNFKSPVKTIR
Method: (§1) Phosphorylation Assays. To assay for GRP94 autophosphorylation, 1 μM GRP94 was incubated with γ-[^32P]ATP (6000 cpm/pmol) (Amersham Pharmacia Biotech of Piscataway, N.J.), diluted with cold ATP to yield a final concentration of 0.15 mM ATP in a buffer containing 10 mM Mg(OAc)2 and 50 mM K-Hepes, pH 7.4. For the casein kinase assay, 1 unit of casein kinase II was incubated as described above, with the addition of 4 μM casein. […] The 25 μl reaction mixtures were incubated at 37° C. for 1 hour and quenched by addition of 10% trichloroacetic acid. Samples were analyzed by 10% SDS-PAGE gels and the phosphorylated species were quantitated using a Fuji MACBAS1000™ phosphorimaging system (Fuji Medical Systems of Stamford, Conn.).

[6] = target: T1, GRP94; experiment: GRP94 autophosphorylation assay; format: biochemical, porcine; conditions: 180 μM NECA or radicicol in 3.6% DMSO, 5 μg/ml heparin, 5 mM GTP
Method: as §1

O=S(=O)(O)c1cccc2cccc(Nc3ccccc3)c12 [8-ANS, 1,8-anilinonaphthalenesulfonate]
agonist activity for GRP94 activation [1]: functions solely as an indicator and lacks agonist activity | fluorophore binding to native versus heat shocked GRP94 (fluorescence emission) [1]: displays weak interactions with native GRP94, yet binds avidly following heat shock

Nc1ncnc2c1ncn2[C@@H]1O[C@H](COP(=O)(O)OP(=O)(O)O)[C@@H](O)[C@H]1O [ADP]
change of GRP94 tryptophan fluorescence [2]: the tryptophan fluorescence was decreased | affinity of N-terminal domain of Hsp90, ADP relative to ATP ([3]; Prodromou et al. (1997)): four-fold higher affinity than that observed for ATP | effect of excess Mg2+ on binding to GRP94 [4]: markedly stimulated the binding of ATP, ADP and AMP | relative affinities for GRP94 in presence of Mg2+ ([4]; excess Mg2+): nearly identical relative affinities

Nc1ncnc2c1ncn2[C@@H]1O[C@H](COP(=O)(O)O)[C@@H](O)[C@H]1O [AMP]
effect of excess Mg2+ on binding to GRP94 [4]: markedly stimulated the binding of ATP, ADP and AMP

Nc1ccn([C@@H]2O[C@H](COP(=O)(O)OP(=O)(O)OP(=O)(O)O)[C@@H](O)[C@H]2O)c(=O)n1 [CTP]
nucleoside base specificity: binding to GRP94 by [3H]-NECA displacement [4]: little to no binding

Nc1nc2c(ncn2[C@@H]2O[C@H](COP(=O)(O)OP(=O)(O)OP(=O)(O)O)[C@@H](O)[C@H]2O)c(=O)[nH]1 [GTP]
inhibition of casein kinase II activity [5]: markedly attenuated GRP94-derived and casein kinase II activity | inhibition of GRP94 autophosphorylation (GRP94-derived kinase) activity [6]: markedly attenuated GRP94-derived and casein kinase II activity | nucleoside base specificity: binding to GRP94 by [3H]-NECA displacement [4]: little to no binding

CCC(=O)c1ccc2cc(N(C)C)ccc2c1 [Prodan, 6-propionyl-2-(dimethylamino)naphthalene]
fluorophore binding to native versus heat shocked GRP94 (fluorescence emission) [1]: does not interact with the hydrophobic binding pocket(s) displayed by heat shocked GRP94

O=c1ccn([C@@H]2O[C@H](COP(=O)(O)OP(=O)(O)OP(=O)(O)O)[C@@H](O)[C@H]2O)c(=O)[nH]1 [UTP]
nucleoside base specificity: binding to GRP94 by [3H]-NECA displacement [4]: little to no binding

Nc1ncnc2c1ncn2[C@@H]1O[C@H](CO)[C@@H](O)[C@H]1O [adenosine]
relative displacement activity in [3H]-NECA competition [4]: relative displacement activity approximating that observed for ADP | effect of excess Mg2+ on binding to GRP94 [4]: without effect on the binding of NECA or adenosine to GRP94

Nc1ncnc2c1ncn2[C@H]1C[C@H](O)[C@@H](COP(=O)(O)OP(=O)(O)OP(=O)(O)O)O1 [deoxyATP]
nucleoside base specificity: binding to GRP94 by [3H]-NECA displacement [4]: GRP94 could bind both ATP and deoxyATP

C[C@@H]1C[C@H]2O[C@@H]2/C=C\C=C\C(=O)Cc2c(Cl)c(O)cc(O)c2C(=O)O1 [radicicol]
inhibition of casein kinase II activity [5]: neither NECA nor radicicol, both of which bind to the N-terminal nucleotide binding domain of GRP94, significantly inhibit GRP94 derived or casein kinase II activity below the solvent background | binding stoichiometry to Hsp90 ([3]; Roe et al. (1999)): 2 mol radicicol/mol Hsp90 dimer

Heparin
inhibition of casein kinase II activity [5]: markedly attenuated GRP94-derived and casein kinase II activity | inhibition of GRP94 autophosphorylation (GRP94-derived kinase) activity [6]: markedly attenuated GRP94-derived and casein kinase II activity
